Assay [1] concerns the target human α2δ-1 subunit of Cav2.2 calcium channel (Homo sapiens (Human), UniProt P54289). Put plainly: Binding assay to human α2δ-1 subunit of Cav2.2 calcium channel ([3H]-Gabapentin). The following applies: read-out: Ki (nM) α2δ-1. In short, it runs like this:
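[3H]-gabapentin binding, 60 min at 27° C; nonspecific binding defined with 10 μM pregabalin. Terminated by filtration on PEI-presoaked GF/C filters, ice-cold 50 mM Tris-HCl pH 7.4 washes, then scintillation counting.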

The target in assay [2] is human norepinephrine transporter (NET) (Homo sapiens (Human), UniProt P23975). Briefly: Binding assay to human norepinephrine transporter (NET) ([3H]-Nisoxetin). The following applies: Table 2, dual compounds; [3H]-Nisoxetin binding. The method, then:
Binding Assay to Human Norepinephrine Transporter (NET).
Human norepinephrine transporter (NET) enriched membranes (5 μg) were incubated with 5 nM of radiolabeled [3H]-Nisoxetin in assay buffer containing 50 mM Tris-HCl, 120 mM NaCl, 5 mM KCl, pH 7.4.
NSB (non specific binding) was measured by adding 1 μM. After 60 min incubation at 4° C., binding reaction was terminated by filtering through Multiscreen GF/C (Millipore) presoaked in 0.5% polyethyleneimine in Vacuum Manifold Station, followed by 3 washes with ice-cold filtration buffer containing 50 mM Tris-HCl, 0.9% NaCl, pH 7.4.
Filter plates were dried at 60° C. for 1 hour and 30 μl of scintillation cocktail were added to each well before radioactivity reading.

Setting [3] is: Table 2, dual compounds, [3H]-Gabapentin binding.
Where [4] appears, read: binding to α2δ-1, [3H]-Gabapentin.

Molecules are shown by their SMILES. Read-outs that look alike come from different tables or passages of the source.

human α2δ-1 subunit of Cav2.2 calcium channel, sequence (P54289 25-1103): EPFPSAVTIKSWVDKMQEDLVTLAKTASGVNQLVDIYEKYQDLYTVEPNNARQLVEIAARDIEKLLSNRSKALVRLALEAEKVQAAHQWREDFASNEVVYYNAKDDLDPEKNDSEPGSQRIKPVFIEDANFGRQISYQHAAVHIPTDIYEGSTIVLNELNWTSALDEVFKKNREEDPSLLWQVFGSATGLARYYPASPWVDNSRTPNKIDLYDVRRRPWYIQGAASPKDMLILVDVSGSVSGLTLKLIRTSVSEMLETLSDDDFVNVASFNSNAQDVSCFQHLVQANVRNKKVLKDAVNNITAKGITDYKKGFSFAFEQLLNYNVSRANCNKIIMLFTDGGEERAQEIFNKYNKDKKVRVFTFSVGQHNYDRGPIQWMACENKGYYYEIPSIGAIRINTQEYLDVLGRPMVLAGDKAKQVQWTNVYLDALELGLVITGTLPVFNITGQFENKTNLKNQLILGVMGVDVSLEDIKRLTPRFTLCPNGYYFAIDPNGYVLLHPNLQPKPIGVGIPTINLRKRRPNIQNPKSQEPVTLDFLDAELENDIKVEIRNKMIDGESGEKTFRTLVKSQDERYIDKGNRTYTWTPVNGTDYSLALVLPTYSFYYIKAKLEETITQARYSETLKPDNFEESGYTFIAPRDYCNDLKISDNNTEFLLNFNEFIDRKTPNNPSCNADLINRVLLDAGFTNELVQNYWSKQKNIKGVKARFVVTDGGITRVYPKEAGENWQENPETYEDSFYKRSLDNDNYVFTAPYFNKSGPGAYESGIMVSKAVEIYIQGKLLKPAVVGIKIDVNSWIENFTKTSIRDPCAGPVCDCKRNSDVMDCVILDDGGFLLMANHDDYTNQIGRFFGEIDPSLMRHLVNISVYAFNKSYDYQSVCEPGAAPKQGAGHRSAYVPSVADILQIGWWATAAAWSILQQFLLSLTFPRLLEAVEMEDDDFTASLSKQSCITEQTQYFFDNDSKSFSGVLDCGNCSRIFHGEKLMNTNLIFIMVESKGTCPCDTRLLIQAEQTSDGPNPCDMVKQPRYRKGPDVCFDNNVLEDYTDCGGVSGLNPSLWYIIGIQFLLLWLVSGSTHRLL
human norepinephrine transporter (NET), sequence (P23975 whole entry): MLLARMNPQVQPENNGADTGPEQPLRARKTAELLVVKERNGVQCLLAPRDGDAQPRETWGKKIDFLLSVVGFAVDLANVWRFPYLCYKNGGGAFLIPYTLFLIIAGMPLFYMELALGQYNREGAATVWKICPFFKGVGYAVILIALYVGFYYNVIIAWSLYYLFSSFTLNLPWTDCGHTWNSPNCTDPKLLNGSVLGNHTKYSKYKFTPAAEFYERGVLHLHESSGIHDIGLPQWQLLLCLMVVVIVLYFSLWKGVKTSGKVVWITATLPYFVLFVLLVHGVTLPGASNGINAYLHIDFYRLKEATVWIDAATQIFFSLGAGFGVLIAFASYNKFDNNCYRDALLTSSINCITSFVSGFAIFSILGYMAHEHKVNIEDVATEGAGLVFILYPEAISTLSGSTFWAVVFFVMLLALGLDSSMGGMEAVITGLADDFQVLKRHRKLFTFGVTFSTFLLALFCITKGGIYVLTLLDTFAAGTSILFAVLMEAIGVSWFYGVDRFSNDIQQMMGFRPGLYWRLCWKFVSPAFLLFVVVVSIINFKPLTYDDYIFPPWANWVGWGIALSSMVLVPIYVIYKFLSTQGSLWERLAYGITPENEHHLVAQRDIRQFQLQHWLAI

What is called Ki is the equilibrium dissociation constant of an inhibitor or competing ligand from its target. `CNCCC(OCc1cccc(N2CCN(C)c3nc(N(C)Cc4ccccn4)ncc3C2=O)c1)c1ccccc1` (stereo not drawn) [Example 336, 9-methyl-2-(methyl(pyridin-2-ylmethyl)amino)-6-(3-((3-(methylamino)-1-phenylpropoxy)methyl)phenyl)-6,7,8,9-tetrahydro-5H-pyrimido[4,5-e][1,4]diazepin-5-one]: the values for the Ki in assay [1] (setting [3]), in assay [1] (setting [4]) and in assay [2] were 500 to 3000 nM, 500 to 3000 nM and 100 to 500 nM, respectively.

For the compound `CNCC[C@@H](OCc1cccc(N2CCN(C)c3nc(SC)ncc3C2=O)c1)c1ccccc1` [Example 164, (R)-9-methyl-6-(3-((3-(methylamino)-1-phenylpropoxy)methyl)phenyl)-2-(methylthio)-6,7,8,9-tetrahydro-5H-pyrimido[4,5-e][1,4]diazepin-5-one], the Ki in assay [1] (setting [3]), in assay [1] (setting [4]) and in assay [2] was 100 to 500 nM each time.

Turning to `CNCC(OCc1ccc(N2CCN(C)c3nc(SC)ncc3C2=O)cc1)c1ccccc1` (stereo not drawn) [Example 321, 9-methyl-6-(4-((2-(methylamino)-1-phenylethoxy)methyl)phenyl)-2-(methylthio)-6,7,8,9-tetrahydro-5H-pyrimido[4,5-e][1,4]diazepin-5-one], the Ki is above 3000 nM in assay [1] (setting [3]), above 3000 nM in assay [1] (setting [4]) and below 100 nM in assay [2].

For `CNCCC(Oc1ccc(CN2CCN(C)c3nc(SC)ncc3C2=O)cc1)c1ccccc1` (stereo not drawn) [Example 369, 9-methyl-6-(4-(3-(methylamino)-1-phenylpropoxy)benzyl)-2-(methylthio)-6,7,8,9-tetrahydro-5H-pyrimido[4,5-e][1,4]diazepin-5-one], the values for the Ki in assay [1] (setting [3]), in assay [1] (setting [4]) and in assay [2] were 500 to 3000 nM, 500 to 3000 nM and below 100 nM, respectively.

On to `CNCC[C@H](Oc1ccc(CN2CCN(C)c3nc(N(C)C)ncc3C2=O)cc1)c1cccs1` [Example 419, (S)-2-(dimethylamino)-9-methyl-6-(4-(3-(methylamino)-1-(thiophen-2-yl)propoxy)benzyl)-6,7,8,9-tetrahydro-5H-pyrimido[4,5-e][1,4]diazepin-5-one], for which the Ki in assay [1] (setting [3]), in assay [1] (setting [4]) and in assay [2] was 100 to 500 nM in each case.

For `CNCC(OCc1cccc(CN2CCN(C)c3nc(SC)ncc3C2=O)c1)c1ccccc1` (stereo not drawn) [Example 372, 9-methyl-6-(3-((2-(methylamino)-1-phenylethoxy)methyl)benzyl)-2-(methylthio)-6,7,8,9-tetrahydro-5H-pyrimido[4,5-e][1,4]diazepin-5-one], the Ki in assay [1] (setting [3]) is above 3000 nM; in assay [1] (setting [4]), above 3000 nM; in assay [2], 100 to 500 nM.

Turning to `CCNc1ncc2c(n1)N(C)CCN(Cc1cccc(COC(CNC)c3ccccc3)c1)C2=O` (stereo not drawn) [Example 411, 2-(ethylamino)-9-methyl-6-(3-((2-(methylamino)-1-phenylethoxy)methyl)benzyl)-6,7,8,9-tetrahydro-5H-pyrimido[4,5-e][1,4]diazepin-5-one], the results for the Ki in assay [1] (setting [3]), in assay [1] (setting [4]) and in assay [2] were above 3000 nM, above 3000 nM and 500 to 1000 nM, respectively.

Turning to `CCNc1ncc2c(n1)N(C)CCN(Cc1ccc(O[C@@H](CCNC)c3ccccc3)cc1)C2=O` [Example 414, (S)-2-(ethylamino)-9-methyl-6-(4-(3-(methylamino)-1-phenylpropoxy)benzyl)-6,7,8,9-tetrahydro-5H-pyrimido[4,5-e][1,4]diazepin-5-one], the inhibition constant (Ki) in assay [1] (setting [3]) was 500 to 3000 nM; in assay [1] (setting [4]) it was 500 to 3000 nM; in assay [2], below 100 nM.

Take `CSc1ncc2c(n1)N(C)CCN(c1cccc(COC3(c4ccccc4)CCN(C)CC3)c1)C2=O` [Example 271, 9-methyl-6-(3-(((1-methyl-4-phenylpiperidin-4-yl)oxy)methyl)phenyl)-2-(methylthio)-6,7,8,9-tetrahydro-5H-pyrimido[4,5-e][1,4]diazepin-5-one]: the figures for the Ki in assay [1] (setting [3]), in assay [1] (setting [4]) and in assay [2] were above 3000 nM, above 3000 nM and above 1000 nM, respectively.

Regarding `CCNc1ncc2c(n1)N(C)CCN(c1cccc(COCC(NC)c3ccccc3)c1)C2=O` (stereo not drawn) [Example 166, 2-(ethylamino)-9-methyl-6-(3-((2-(methylamino)-2-phenylethoxy)methyl)phenyl)-6,7,8,9-tetrahydro-5H-pyrimido[4,5-e][1,4]diazepin-5-one], the values for the inhibition constant (Ki) in assay [1] (setting [3]), in assay [1] (setting [4]) and in assay [2] were 500 to 3000 nM, above 3000 nM and 500 to 1000 nM, respectively.

In the case of `CNCC(OCc1cccc(N2CCN(C)c3nc(SC)ncc3C2=O)c1)c1ccccc1` (stereo not drawn) [Example 226, 9-methyl-6-(3-((2-(methylamino)-1-phenylethoxy)methyl)phenyl)-2-(methylthio)-6,7,8,9-tetrahydro-5H-pyrimido[4,5-e][1,4]diazepin-5-one], the Ki in assay [1] (setting [3]) was above 3000 nM; in assay [1] (setting [4]), above 3000 nM; in assay [2], 500 to 1000 nM.

Turning to `CNCCC(Oc1ccc(CN2CCN(C)c3ncncc3C2=O)cc1)c1ccccc1` (stereo not drawn) [Example 430, 9-methyl-6-(4-(3-(methylamino)-1-phenylpropoxy)benzyl)-6,7,8,9-tetrahydro-5H-pyrimido[4,5-e][1,4]diazepin-5-one], the Ki in assay [1] (setting [3]) is 500 to 3000 nM; in assay [1] (setting [4]), 500 to 3000 nM; in assay [2], below 100 nM.

For `CNCCC(OCc1ccc(N2CCN(C)c3nc(SC)ncc3C2=O)cc1)c1ccccc1` (stereo not drawn) [Example 315, 9-methyl-6-(4-((3-(methylamino)-1-phenylpropoxy)methyl)phenyl)-2-(methylthio)-6,7,8,9-tetrahydro-5H-pyrimido[4,5-e][1,4]diazepin-5-one], the Ki in assay [1] (setting [3]) was above 3000 nM; in assay [1] (setting [4]), above 3000 nM; in assay [2], below 100 nM.

Regarding `CNCCC(OCc1ccc(N2CCN(C)c3nc(SC)ncc3C2=O)cc1)c1cccs1` (stereo not drawn) [Example 328, 9-methyl-6-(4-((3-(methylamino)-1-(thiophen-2-yl)propoxy)methyl)phenyl)-2-(methylthio)-6,7,8,9-tetrahydro-5H-pyrimido[4,5-e][1,4]diazepin-5-one], the Ki in assay [1] (setting [3]) was above 3000 nM; in assay [1] (setting [4]) it was above 3000 nM; in assay [2], below 100 nM.

For `CNCC[C@H](Oc1ccc(CN2CCN(C)c3ncncc3C2=O)cc1)c1ccccc1` [Example 433, (S)-9-methyl-6-(4-(3-(methylamino)-1-phenylpropoxy)benzyl)-6,7,8,9-tetrahydro-5H-pyrimido[4,5-e][1,4]diazepin-5-one], the Ki in assay [1] (setting [3]) was 500 to 3000 nM; in assay [1] (setting [4]), 500 to 3000 nM; in assay [2], below 100 nM.

As for `CNCC[C@H](OCc1cccc(N2CCN(C)c3nc(SC)ncc3C2=O)c1)c1cccs1` [Example 210, (S)-9-methyl-6-(3-((3-(methylamino)-1-(thiophen-2-yl)propoxy)methyl)phenyl)-2-(methylthio)-6,7,8,9-tetrahydro-5H-pyrimido[4,5-e][1,4]diazepin-5-one], the Ki in assay [1] (setting [3]) is above 3000 nM; in assay [1] (setting [4]), above 3000 nM; in assay [2] it was 100 to 500 nM.

Consider `CCNc1ncc2c(n1)N(C)CCN(c1cccc(-c3nnc(CN4CCC(c5cccc(O)c5)(N(C)C)CC4)o3)c1)C2=O` [Example 442, 6-(3-(5-((4-(dimethylamino)-4-(3-hydroxyphenyl)piperidin-1-yl)methyl)-1,3,4-oxadiazol-2-yl)phenyl)-2-(ethylamino)-9-methyl-6,7,8,9-tetrahydro-5H-pyrimido[4,5-e][1,4]diazepin-5-one], for which the Ki in assay [1] (setting [3]), in assay [1] (setting [4]) and in assay [2] was below 100 nM each time.

Consider `CCNc1ncc2c(n1)N(C)CCN(c1cccc(COC3(c4ccccc4)CCNCC3)c1)C2=O` [Example 176, 2-(ethylamino)-9-methyl-6-(3-(((4-phenylpiperidin-4-yl)oxy)methyl)phenyl)-6,7,8,9-tetrahydro-5H-pyrimido[4,5-e][1,4]diazepin-5-one], for which the Ki in assay [1] (setting [3]) was 500 to 3000 nM; in assay [1] (setting [4]), 500 to 3000 nM; in assay [2] it was above 1000 nM.

Turning to `CNCC[C@H](Oc1ccc(CN2CCN(C)c3ccncc3C2=O)cc1)c1cccs1` [Example 382, (S)-1-methyl-4-(4-(3-(methylamino)-1-(thiophen-2-yl)propoxy)benzyl)-1,2,3,4-tetrahydro-5H-pyrido[4,3-e][1,4]diazepin-5-one], the Ki in assay [1] (setting [3]), in assay [1] (setting [4]) and in assay [2] was 100 to 500 nM each time.

Regarding `CCNc1ncc2c(n1)N(C)CCN(c1cccc(OC(CCNC)c3cccnc3)c1)C2=O` (stereo not drawn) [Example 194, 2-(ethylamino)-9-methyl-6-(3-(3-(methylamino)-1-(pyridin-3-yl)propoxy)phenyl)-6,7,8,9-tetrahydro-5H-pyrimido[4,5-e][1,4]diazepin-5-one], the Ki in assay [1] (setting [3]) is 500 to 3000 nM; in assay [1] (setting [4]), 500 to 3000 nM; in assay [2], above 1000 nM.

Turning to `CCNc1ncc2c(n1)N(C)CCN(c1ccc(OC(CNC)c3ccccc3)cc1)C2=O` (stereo not drawn) [Example 159, 2-(ethylamino)-9-methyl-6-(4-(2-(methylamino)-1-phenylethoxy)phenyl)-6,7,8,9-tetrahydro-5H-pyrimido[4,5-e][1,4]diazepin-5-one], the values for the Ki in assay [1] (setting [3]), in assay [1] (setting [4]) and in assay [2] were above 3000 nM, above 3000 nM and above 1000 nM, respectively.

For the compound `CCNc1ncc2c(n1)N(C)CCN(c1cccc(-n3cc(CN4CCCCC4)nn3)c1)C2=O` [Example 281, 2-(ethylamino)-9-methyl-6-(3-(4-(piperidin-1-ylmethyl)-1H-1,2,3-triazol-1-yl)phenyl)-6,7,8,9-tetrahydro-5H-pyrimido[4,5-e][1,4]diazepin-5-one], the Ki in assay [1] (setting [3]), in assay [1] (setting [4]) and in assay [2] was 100 to 500 nM throughout.

Source of the values: patent US10590140B2, “Tetrahydropyrimidodiazepine and dihydropyridodiazepine compounds for treating pain and pain related conditions” (ESTEVE PHARMACEUTICALS, S.A., priority 2016, dated 2020).
